Measurements: PubChem BioAssay (NCI)
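Each compound was tested at five concentrations against cells in 96-well plates for 48 hours. Definition used: TGI = concentration required for complete inhibition of growth.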

Tests used:
Experiment in all cases: inhibition of tumour cell growth, NCI panel, 48 h
SN12C renal = tested on: SN12C renal
MDA-MB-231 breast = tested on: MDA-MB-231 breast
SF-295 CNS = tested on: SF-295 CNS
NCI-H226 lung = tested on: NCI-H226 lung
IGROV1 ovarian = tested on: IGROV1 ovarian
MDA-MB-435 = tested on: MDA-MB-435
PC-3 prostate = tested on: PC-3 prostate
NCI-H522 lung = tested on: NCI-H522 lung
UACC-257 melanoma = tested on: UACC-257 melanoma
SK-MEL-2 melanoma = tested on: SK-MEL-2 melanoma
DU-145 prostate = tested on: DU-145 prostate
SNB-75 CNS = tested on: SNB-75 CNS
CCRF-CEM leukemia = tested on: CCRF-CEM leukemia
OVCAR-3 ovarian = tested on: OVCAR-3 ovarian
RXF 393 renal = tested on: RXF 393 renal
SK-OV-3 ovarian = tested on: SK-OV-3 ovarian
EKVX NSCLC = tested on: EKVX NSCLC
KM12 colon = tested on: KM12 colon
NCI-H460 lung = tested on: NCI-H460 lung
SK-MEL-28 melanoma = tested on: SK-MEL-28 melanoma
COLO 205 colon = tested on: COLO 205 colon
SW-620 colon = tested on: SW-620 colon
HOP-62 NSCLC = tested on: HOP-62 NSCLC
M14 melanoma = tested on: M14 melanoma
NCI/ADR-RES ovarian = tested on: NCI/ADR-RES ovarian
SK-MEL-5 melanoma = tested on: SK-MEL-5 melanoma
ACHN renal = tested on: ACHN renal
TK-10 renal = tested on: TK-10 renal
U251 CNS = tested on: U251 CNS
SNB-19 CNS = tested on: SNB-19 CNS
HCC-2998 colon = tested on: HCC-2998 colon
OVCAR-8 ovarian = tested on: OVCAR-8 ovarian
MALME-3M melanoma = tested on: MALME-3M melanoma
CAKI-1 renal = tested on: CAKI-1 renal
MOLT-4 leukemia = tested on: MOLT-4 leukemia
OVCAR-5 ovarian = tested on: OVCAR-5 ovarian
NCI-H23 lung = tested on: NCI-H23 lung
MCF7 breast = tested on: MCF7 breast
786-0 renal = tested on: 786-0 renal
OVCAR-4 ovarian = tested on: OVCAR-4 ovarian
T-47D breast = tested on: T-47D breast
UACC-62 melanoma = tested on: UACC-62 melanoma
HCT-116 colon = tested on: HCT-116 colon
UO-31 renal = tested on: UO-31 renal
SF-539 CNS = tested on: SF-539 CNS
K-562 leukemia = tested on: K-562 leukemia
HCT-15 colon = tested on: HCT-15 colon
HT29 colon = tested on: HT29 colon
RPMI-8226 leukemia = tested on: RPMI-8226 leukemia
MDA-N = tested on: MDA-N
HOP-92 NSCLC = tested on: HOP-92 NSCLC
A549 NSCLC = tested on: A549 NSCLC
HS 578T breast = tested on: HS 578T breast
A498 renal = tested on: A498 renal
LOX IMVI melanoma = tested on: LOX IMVI melanoma
SF-268 CNS = tested on: SF-268 CNS

Measured: TGI

Cc1cn(CCCC2=NCCCN2)c(=O)[nH]c1=O
> 100 µM: SN12C renal | MDA-MB-231 breast | SF-295 CNS | NCI-H226 lung | IGROV1 ovarian | MDA-MB-435 | PC-3 prostate | NCI-H522 lung | UACC-257 melanoma | SK-MEL-2 melanoma | DU-145 prostate | SNB-75 CNS | CCRF-CEM leukemia | OVCAR-3 ovarian | RXF 393 renal | SK-OV-3 ovarian | EKVX NSCLC | KM12 colon | NCI-H460 lung | SK-MEL-28 melanoma | COLO 205 colon | SW-620 colon | HOP-62 NSCLC | M14 melanoma | NCI/ADR-RES ovarian | SK-MEL-5 melanoma | ACHN renal | TK-10 renal | U251 CNS | SNB-19 CNS | HCC-2998 colon | OVCAR-8 ovarian | MALME-3M melanoma | CAKI-1 renal | MOLT-4 leukemia | OVCAR-5 ovarian | NCI-H23 lung | MCF7 breast | 786-0 renal | OVCAR-4 ovarian | T-47D breast | UACC-62 melanoma | HCT-116 colon | UO-31 renal | SF-539 CNS | K-562 leukemia | HCT-15 colon | HT29 colon | RPMI-8226 leukemia | MDA-N | HOP-92 NSCLC | A549 NSCLC | HS 578T breast | A498 renal | LOX IMVI melanoma | SF-268 CNS
